Results as given in ChEMBL document CHEMBL3352542, “Synthesis, biological evaluation and molecular modeling study of 2-(1,3,4-thiadiazolyl-thio and 4-methyl-thiazolyl-thio)-quinazolin-4-ones as a new class of DHFR inhibitors” (Bioorg Med Chem Lett, 2014).
The source made the active and inactive calls. The calls are words filed in the database; no cut-off is given here.

How the values were obtained:
[1] = test system: MCF7; test: Growth inhibition of human MCF7 cells at 10 uM after 48 hrs; type: functional; settings: MCF7, 48 h, read-out: GI
[2] = test system: MDA-MB-435; test: Growth inhibition of human MDA-MB-435 cells at 10 uM after 48 hrs; type: functional; settings: MDA-MB-435, 48 h, read-out: GI
[3] = Growth inhibition of human UO31 cells at 10 uM after 48 hrs; type: functional; settings: UO-31, 48 h, read-out: GI
[4] = biological target: T1, Dihydrofolate reductase (Bos taurus, UniProt P00376); test: Inhibition of bovine liver DHFR
T1 sequence (P00376 whole entry): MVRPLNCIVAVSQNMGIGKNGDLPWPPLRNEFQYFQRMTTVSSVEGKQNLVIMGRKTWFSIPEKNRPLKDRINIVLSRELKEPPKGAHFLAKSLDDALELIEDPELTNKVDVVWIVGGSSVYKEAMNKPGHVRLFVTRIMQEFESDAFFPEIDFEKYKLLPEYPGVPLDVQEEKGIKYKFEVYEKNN

[5] = Growth inhibition of human HCT15 cells at 10 uM after 48 hrs; type: functional; settings: HCT-15, 48 h, read-out: GI
[6] = Growth inhibition of human RPMI8226 cells at 10 uM after 48 hrs; type: functional; settings: RPMI-8226, 48 h, read-out: GI
[7] = test system: SK-MEL-5; test: Growth inhibition of human SK-MEL-5 cells at 10 uM after 48 hrs; type: functional; settings: SK-MEL-5, 48 h, read-out: GI
[8] = Growth inhibition of human HOP92 cells at 10 uM after 48 hrs; type: functional; settings: HOP-92, 48 h, read-out: GI
[9] = Growth inhibition of human UACC257 cells at 10 uM after 48 hrs; type: functional; settings: UACC-257, 48 h, read-out: GI
[10] = test system: Staphylococcus aureus; test: Antimicrobial activity against Staphylococcus aureus assessed as inhibition of visible growth after 24 hrs by disc-diffusion method; type: functional, organism-based
[11] = Growth inhibition of human SF295 cells at 10 uM after 48 hrs; type: functional; settings: SF-295, 48 h, read-out: GI
[12] = test system: Escherichia coli; test: Antimicrobial activity against Escherichia coli assessed as inhibition of visible growth after 24 hrs by disc-diffusion method; type: functional, organism-based
[13] = test system: Bacillus subtilis; test: Antimicrobial activity against Bacillus subtilis assessed as inhibition of visible growth after 24 hrs by disc-diffusion method; type: functional, organism-based
[14] = test system: U-251; test: Growth inhibition of human U251 cells at 10 uM after 48 hrs; type: functional; settings: U-251, 48 h, read-out: GI
[15] = Growth inhibition of human PC3 cells at 10 uM after 48 hrs; type: functional; settings: PC-3, 48 h, read-out: GI
[16] = test system: T47D; test: Growth inhibition of human T47D cells at 10 uM after 48 hrs; type: functional; settings: read-out: GI
[17] = test system: Bacillus subtilis; test: Antimicrobial activity against Bacillus subtilis assessed as inhibition zone at 200 ug/disk after 24 hrs by disc-diffusion method; type: functional; settings: read-out: IZ
[18] = test system: Candida albicans; test: Antimicrobial activity against Candida albicans assessed as inhibition zone at 200 ug/disk after 24 hrs by disc-diffusion method; type: functional; settings: read-out: IZ
[19] = test system: HOP-62; test: Growth inhibition of human HOP62 cells at 10 uM after 48 hrs; type: functional; settings: HOP-62, 48 h, read-out: GI
[20] = test system: Escherichia coli; test: Antimicrobial activity against Escherichia coli assessed as inhibition zone at 200 ug/disk after 24 hrs by disc-diffusion method; type: functional; settings: read-out: IZ
[21] = Growth inhibition of human Hs 578T cells at 10 uM after 48 hrs; type: functional; settings: read-out: GI
[22] = test system: A498; test: Growth inhibition of human A498 cells at 10 uM after 48 hrs; type: functional; settings: A498, 48 h, read-out: GI
[23] = test system: 786-0; test: Growth inhibition of human 786-0 cells at 10 uM after 48 hrs; type: functional; settings: 786-0, 48 h, read-out: GI
[24] = test system: Pseudomonas aeruginosa; test: Antimicrobial activity against Pseudomonas aeruginosa assessed as inhibition zone at 200 ug/disk after 24 hrs by disc-diffusion method; type: functional; settings: read-out: IZ
[25] = test system: A549; test: Growth inhibition of human A549 cells at 10 uM after 48 hrs; type: functional; settings: A549, 48 h, read-out: GI
[26] = test system: Staphylococcus aureus; test: Antimicrobial activity against Staphylococcus aureus assessed as inhibition zone at 200 ug/disk after 24 hrs by disc-diffusion method; type: functional; settings: read-out: IZ
[27] = test system: HL-60(TB); test: Growth inhibition of human HL-60(TB) cells at 10 uM after 48 hrs; type: functional; settings: HL-60, 48 h, read-out: GI
[28] = test system: MDA-MB-231; test: Growth inhibition of human MDA-MB-231 cells at 10 uM after 48 hrs; type: functional; settings: MDA-MB-231, 48 h, read-out: GI
[29] = Growth inhibition of human HCT116 cells at 10 uM after 48 hrs; type: functional; settings: HCT-116, 48 h, read-out: GI
[30] = test system: CAKI-1; test: Growth inhibition of human CAKI-1 cells at 10 uM after 48 hrs; type: functional; settings: CAKI-1, 48 h, read-out: GI
[31] = Growth inhibition of human UACC62 cells at 10 uM after 48 hrs; type: functional; settings: UACC-62, 48 h, read-out: GI
[32] = test system: SR; test: Growth inhibition of human SR cells at 10 uM after 48 hrs; type: functional; settings: read-out: GI
[33] = Growth inhibition of human SF539 cells at 10 uM after 48 hrs; type: functional; settings: SF-539, 48 h, read-out: GI
[34] = Growth inhibition of human RXF393 cells at 10 uM after 48 hrs; type: functional; settings: RXF 393, 48 h, read-out: GI
[35] = Growth inhibition of human OVCAR5 cells at 10 uM after 48 hrs; type: functional; settings: OVCAR-5, 48 h, read-out: GI
[36] = test system: K562; test: Growth inhibition of human K562 cells at 10 uM after 48 hrs; type: functional; settings: K562, 48 h, read-out: GI
[37] = Growth inhibition of human NCI-ADR-RES cells at 10 uM after 48 hrs; type: functional; settings: read-out: GI
[38] = test system: SF-268; test: Growth inhibition of human SF268 cells at 10 uM after 48 hrs; type: functional; settings: SF-268, 48 h, read-out: GI
[39] = test system: SNB-75; test: Growth inhibition of human SNB75 cells at 10 uM after 48 hrs; type: functional; settings: SNB-75, 48 h, read-out: GI
[40] = Growth inhibition of human LOXIMVI cells at 10 uM after 48 hrs; type: functional; settings: LOX IMVI, read-out: GI
[41] = Growth inhibition of human OVCAR8 cells at 10 uM after 48 hrs; type: functional; settings: OVCAR-8, 48 h, read-out: GI
[42] = Growth inhibition of human OVCAR4 cells at 10 uM after 48 hrs; type: functional; settings: OVCAR-4, 48 h, read-out: GI
[43] = test system: SNB-19; test: Growth inhibition of human SNB19 cells at 10 uM after 48 hrs; type: functional; settings: SNB-19, 48 h, read-out: GI
[44] = test system: KM12; test: Growth inhibition of human KM12 cells at 10 uM after 48 hrs; type: functional; settings: KM12, 48 h, read-out: GI
[45] = Growth inhibition of human BT549 cells at 10 uM after 48 hrs; type: functional; settings: BT-549, 48 h, read-out: GI

| SMILES | inhibition of growth at 10 µM [3] | IC50 [4] | inhibition of growth at 10 µM [5] | inhibition of growth at 10 µM [6] | inhibition of growth at 10 µM [7] | inhibition of growth at 10 µM [8] | inhibition of growth at 10 µM [11] | inhibition of growth at 10 µM [14] | inhibition of growth at 10 µM [15] | zone of inhibition at 200 µg/disc [17] | zone of inhibition at 200 µg/disc [18] | zone of inhibition at 200 µg/disc [20] | inhibition of growth at 10 µM [22] | inhibition of growth at 10 µM [23] | zone of inhibition at 200 µg/disc [24] | inhibition of growth at 10 µM [25] | zone of inhibition at 200 µg/disc [26] | inhibition of growth at 10 µM [28] | inhibition of growth at 10 µM [29] | inhibition of growth at 10 µM [30] | also measured |
| --- | --- | --- | --- | --- | --- | --- | --- | --- | --- | --- | --- | --- | --- | --- | --- | --- | --- | --- | --- | --- | --- |
| Nc1nnc(Sc2nc3ccc(Cl)cc3c(=O)n2-c2ccc(Cl)cc2)s1 | 24.6% | 1 µM | 12.7% | 12.1% | 10.9% | 53.7% | 20.6% | 11% | 14.1% | 20 mm | 8 mm | 16 mm | 30.6% | 15.4% | 12 mm | 11.1% | 18 mm |  |  |  | inhibition of growth at 10 µM [1]: 12.7%; inhibition of growth at 10 µM [2]: 10.8%; inhibition of growth at 10 µM [9]: 12.3%; Activity [10]: Active; Activity [12]: Active; Activity [13]: Active; inhibition of growth at 10 µM [16]: 29.2%; inhibition of growth at 10 µM [19]: 16.7%; inhibition of growth at 10 µM [21]: 13.3% |
| Cc1ccc(-n2c(Sc3nnc(N)s3)nc3ccc(C)cc3c2=O)cc1 | 23.2% | 8 µM |  |  |  | 21.1% |  |  | 11.8% | 8 mm | 8 mm | 8 mm | 14.2% |  | 8 mm |  | 8 mm | 21.9% | 11.6% | 10.4% | inhibition of growth at 10 µM [27]: 28.2%; inhibition of growth at 10 µM [31]: 14.8%; inhibition of growth at 10 µM [32]: 32.7%; inhibition of growth at 10 µM [33]: 15.6%; inhibition of growth at 10 µM [34]: 10.5% |
| COc1ccc(-n2c(Sc3sc(N)nc3C)nc3ccc(C)cc3c2=O)cc1 | 26.2% | 7 µM | 25.3% | 16.2% | 15.7% | 42.3% | 10.6% | 15.7% | 15.9% | 8 mm | 8 mm | 8 mm | 24.6% | 12% | 8 mm | 15.6% | 8 mm | 25% | 19.1% | 11.5% | inhibition of growth at 10 µM [35]: 17.9%; inhibition of growth at 10 µM [36]: 13%; inhibition of growth at 10 µM [37]: 11.3%; inhibition of growth at 10 µM [38]: 10.6%; inhibition of growth at 10 µM [39]: 11.9%; inhibition of growth at 10 µM [31]: 15.4%; inhibition of growth at 10 µM [34]: 28%; inhibition of growth at 10 µM [40]: 11%; inhibition of growth at 10 µM [41]: 13.4%; inhibition of growth at 10 µM [42]: 12.9%; inhibition of growth at 10 µM [43]: 15.5%; inhibition of growth at 10 µM [44]: 19.4%; inhibition of growth at 10 µM [45]: 20.6% |
